Common to all, as to assay type: cell-based
Assay [1] has as its target T1, F876L mutant Androgen Receptor (AR-F876L) (Homo sapiens, UniProt P10275, F877L).
T1 construct: expressed in transfected cells; host or cells: LNCaP (LNCaP F876L)
T1 sequence (P10275 1-920 F877L): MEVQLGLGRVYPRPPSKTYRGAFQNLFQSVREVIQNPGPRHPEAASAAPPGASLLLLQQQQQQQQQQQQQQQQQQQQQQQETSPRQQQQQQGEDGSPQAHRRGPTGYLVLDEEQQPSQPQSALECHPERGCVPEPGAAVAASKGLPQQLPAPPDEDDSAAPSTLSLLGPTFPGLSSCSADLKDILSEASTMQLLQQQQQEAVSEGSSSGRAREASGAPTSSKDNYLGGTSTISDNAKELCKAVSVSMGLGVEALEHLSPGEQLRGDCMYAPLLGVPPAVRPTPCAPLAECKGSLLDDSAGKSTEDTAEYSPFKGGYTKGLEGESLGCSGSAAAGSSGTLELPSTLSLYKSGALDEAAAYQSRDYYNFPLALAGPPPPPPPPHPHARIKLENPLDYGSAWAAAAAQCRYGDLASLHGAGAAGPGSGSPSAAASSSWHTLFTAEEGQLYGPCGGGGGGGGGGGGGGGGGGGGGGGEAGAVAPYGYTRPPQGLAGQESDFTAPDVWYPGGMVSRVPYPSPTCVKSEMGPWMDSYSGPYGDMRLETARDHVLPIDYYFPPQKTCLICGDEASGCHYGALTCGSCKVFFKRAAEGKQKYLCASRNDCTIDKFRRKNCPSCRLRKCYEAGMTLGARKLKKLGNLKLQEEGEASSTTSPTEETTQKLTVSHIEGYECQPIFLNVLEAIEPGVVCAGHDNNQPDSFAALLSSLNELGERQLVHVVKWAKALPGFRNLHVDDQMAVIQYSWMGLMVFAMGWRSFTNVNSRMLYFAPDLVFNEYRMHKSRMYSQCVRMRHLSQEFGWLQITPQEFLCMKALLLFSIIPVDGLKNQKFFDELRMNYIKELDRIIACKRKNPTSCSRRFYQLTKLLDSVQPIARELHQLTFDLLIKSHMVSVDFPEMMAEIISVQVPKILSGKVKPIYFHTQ
Put plainly: LNCaP-AR-F876L ANT reporter assay (ARE firefly luciferase, antagonist mode). The conditions noted are these: for Emax: read-out: LNCaP-AR-F876L ANT MAX % Inh; for IC50: read-out: LNCaP-AR-F876L ANT pIC50 (converted). The method in brief:
(§1)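 Puromycin-selected LNCaP pools, grown in charcoal-stripped serum, were incubated 20-24 h at 37 °C with compounds, plus agonist challenge at 400 pM for wild-type and 600 pM for F876L.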
In general terms: In a reporter assay the amount or activity of a reporter protein is the signal.

For assay [2], the target named is T1, F876L mutant Androgen Receptor (AR-F876L). Put plainly: LNCaP-AR-F876L AG reporter assay (ARE firefly luciferase, agonist mode). Particulars: for Emax: read-out: LNCaP-AR-F876L AG MAX % Stim. The method in brief:
(§2)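 LNCaP cells stably expressing wild-type or F876L AR (puromycin-selected pooled populations) were cultured in charcoal-stripped serum medium. In antagonist mode, agonist challenge was 400 pM for wild-type and 600 pM for F876L.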

For assay [3], the target named is T2, wild-type Androgen Receptor (AR-wt) (Homo sapiens, UniProt P10275).
T2 construct: expressed in transfected cells; host or cells: LNCaP (LNCaP AR (cs))
T2 sequence (P10275 1-920): T1 sequence (P10275 1-920 F877L) with L877F
Kind of assay: LNCaP-AR-wt AG reporter assay (ARE firefly luciferase, agonist mode). The conditions noted are these: for Emax: read-out: LNCaP-AR-wt AG MAX % Stim. Put shortly:
as §2

Assay [4] has as its target T2, wild-type Androgen Receptor (AR-wt). Put plainly: LNCaP-AR-wt ANT reporter assay (ARE firefly luciferase, antagonist mode). The conditions noted are these: for IC50: antagonist mode, 400 pM R-1881 challenge, −Log10(IC50 [Molar]), read-out: LNCaP-AR-wt ANT pIC50 (converted); for Emax: read-out: LNCaP-AR-wt ANT MAX % Inh. Put shortly:
as §1

Setting [5] is: maximum % inhibition of R1881 control response over tested concentration range.
Where [6] appears, read: agonist mode, −Log10(EC50 [Molar]), read-out: LNCaP-AR-F876L AG pEC50 (converted).
[7] abbreviates: maximum % stimulation (agonist response) over tested concentration range.
Where [8] appears, read: agonist mode, −Log10(EC50 [Molar]), read-out: LNCaP-AR-wt AG pEC50 (converted).

Where a chain is given by its changes, count along the chain named. Read-outs that look alike come from different tables or passages of the source.

Data on ten molecules can be found in patent publication US20180008587A1, “THIOHYDANTOIN ANDROGEN RECEPTOR ANTAGONISTS FOR THE TREATMENT OF CANCER” (Jaressen Pharmaceutica NV, priority 2016, published 2018).

Consider `Cc1cc(N2C(=O)C3(CCC3)N(c3ccc(C(=O)Nc4cccc(Cl)c4)c(F)c3)C2=S)cnc1C#N` [Cpd 78, N-(3-chlorophenyl)-4-[6-(6-cyano-5-methyl-3-pyridyl)-5-oxo-7-thioxo-6,8-diazaspiro[3.4]octan-8-yl]-2-fluoro-benzamide], for which the Emax is 95.9% in assay [1] (setting [5]), 1% in assay [2] (setting [7]), 0.7% in assay [3] (setting [7]) and 96.5% in assay [4] (setting [5]). Moreover, the results for the IC50 in assay [1] and in assay [4] were 1050 nM and 1320 nM, respectively. Further, the EC50 in assay [2] (setting [6]) and in assay [3] (setting [8]) was over 15100 nM throughout.
`N#Cc1cccc(N2C(=S)N(c3cnc(C#N)c(C(F)(F)F)c3)C(=O)C23CCC3)c1` [Cpd 79, 5-[8-(3-cyanophenyl)-5-oxo-7-thioxo-6,8-diazaspiro[3.4]octan-6-yl]-3-(trifluoromethyl)pyridine-2-carbonitrile]: the Emax in assay [1] (setting [5]) was 101%; in assay [2] (setting [7]) it was 0.5%; in assay [3] (setting [7]), 1.6%; in assay [4] (setting [5]) it was 101%. The IC50 in assay [1] is 331 nM; in assay [4], 631 nM. The EC50 in assay [2] (setting [6]) and in assay [3] (setting [8]) was over 15100 nM each time.
Turning to `N#Cc1ncc(N2C(=O)C3(CCC3)N(c3ccc(C(N)=O)c(F)c3)C2=S)cc1C(F)(F)F` [Cpd 80, 4-[6-[6-cyano-5-(trifluoromethyl)-3-pyridyl]-5-oxo-7-thioxo-6,8-diazaspiro[3.4]octan-8-yl]-2-fluoro-benzamide], the Emax turned out to be 95.4% in assay [1] (setting [5]), 1.2% in assay [2] (setting [7]), 0.4% in assay [3] (setting [7]) and 100% in assay [4] (setting [5]). In addition, the values for the IC50 in assay [1] and in assay [4] were 427 nM and 891 nM, respectively. The EC50 in assay [2] (setting [6]) and in assay [3] (setting [8]) was over 15100 nM in each case.
As for `N#Cc1ncc(N2C(=O)C3(CCC3)N(c3cccc(CO)c3)C2=S)cc1C(F)(F)F` [Cpd 81, 5-[8-[3-(hydroxymethyl)phenyl]-5-oxo-7-thioxo-6,8-diazaspiro[3.4]octan-6-yl]-3-(trifluoromethyl)pyridine-2-carbonitrile], the Emax in assay [1] was found to be 100%; in assay [2], 1.2%; in assay [3], 0.7%; in assay [4], 95.9%. Besides, the IC50 in assay [1] is 776 nM; in assay [4] it was 708 nM. Moreover, the EC50 in assay [2] and in assay [3] was over 15100 nM in each case.
Take `CCOC(=O)CCCNC(=O)c1ccc(N2C(=S)N(c3cnc(C#N)c(C(F)(F)F)c3)C(=O)C23CCC3)cc1F` [Cpd 82, ethyl 4-[[4-[6-[6-cyano-5-(trifluoromethyl)-3-pyridyl]-5-oxo-7-thioxo-6,8-diazaspiro[3.4]octan-8-yl]-2-fluoro-benzoyl]amino]butanoate]: the Emax turned out to be 95.5% in assay [1] (setting [5]), 1.2% in assay [2] (setting [7]), 0% in assay [3] (setting [7]) and 103% in assay [4] (setting [5]). Moreover, the IC50 is 437 nM in assay [1] and 363 nM in assay [4]. In addition, the EC50 in assay [2] (setting [6]) and in assay [3] (setting [8]) was over 15100 nM each time.
Turning to `Cc1cc(N2C(=O)C3(CCC3)N(c3ccc(OC4CCNCC4)cc3)C2=S)cnc1C#N` [Cpd 83, 3-methyl-5-[5-oxo-8-[4-(4-piperidyloxy)phenyl]-7-thioxo-6,8-diazaspiro[3.4]octan-6-yl]pyridine-2-carbonitrile], the Emax in assay [1] (setting [5]) is 99.5%; in assay [2] (setting [7]), 0.5%; in assay [3] (setting [7]), 0.1%; in assay [4] (setting [5]), 98.8%. For the same molecule, the IC50 is 1000 nM in assay [1] and 2240 nM in assay [4]. In addition, the EC50 in assay [2] (setting [6]) and in assay [3] (setting [8]) was over 15100 nM in each case.
With `Cc1cc(N2C(=O)C3(CCC3)N(c3ccc(C(=O)Nc4ccc(F)cc4)c(F)c3)C2=S)cnc1C#N` [Cpd 84, 4-[6-(6-cyano-5-methyl-3-pyridyl)-5-oxo-7-thioxo-6,8-diazaspiro[3.4]octan-8-yl]-2-fluoro-N-(4-fluorophenyl)benzamide], the Emax in assay [1] (setting [5]) was determined as 91.9%; in assay [2] (setting [7]) it was 1.3%; in assay [3] (setting [7]) it was 1%; in assay [4] (setting [5]) it was 87.8%. The IC50 in assay [1] was 479 nM; in assay [4] it was 912 nM. Moreover, the EC50 in assay [2] (setting [6]) and in assay [3] (setting [8]) was over 15100 nM throughout.
Take `Cc1cc(N2C(=O)C3(CCC3)N(c3ccc(-c4ccco4)cc3)C2=S)cnc1C#N` [Cpd 86, 5-[8-[4-(2-furyl)phenyl]-5-oxo-7-thioxo-6,8-diazaspiro[3.4]octan-6-yl]-3-methyl-pyridine-2-carbonitrile]: the Emax in assay [1] (setting [5]) came to 93.3%; in assay [2] (setting [7]) it was 1.3%; in assay [3] (setting [7]), 0.6%; in assay [4] (setting [5]), 91.7%. Moreover, the IC50 was 209 nM in assay [1] and 257 nM in assay [4]. Moreover, the EC50 in assay [2] (setting [6]) and in assay [3] (setting [8]) was over 15100 nM in each case.
Take `N#Cc1ncc(N2C(=O)C3(CCC3)N(c3ccc(Oc4cncnc4)cc3)C2=S)cc1C(F)(F)F` [Cpd 88, 5-[5-oxo-8-(4-pyrimidin-5-yloxyphenyl)-7-thioxo-6,8-diazaspiro[3.4]octan-6-yl]-3-(trifluoromethyl)pyridine-2-carbonitrile]: the Emax was 87.3% in assay [1], 0.7% in assay [2], 0.7% in assay [3] and 97.2% in assay [4]. In addition, the IC50 in assay [1] was 138 nM; in assay [4], 631 nM. Also, the EC50 in assay [2] and in assay [3] was over 15100 nM in each case.
Take `N#Cc1ncc(N2C(=O)C3(CCC3)N(c3ccc(C4CCOCC4)cc3)C2=S)cc1C(F)(F)F` [Cpd 89, 5-[5-oxo-8-(4-tetrahydropyran-4-ylphenyl)-7-thioxo-6,8-diazaspiro[3.4]octan-6-yl]-3-(trifluoromethyl)pyridine-2-carbonitrile]: the Emax was found to be 96.2% in assay [1] (setting [5]), 1.4% in assay [2] (setting [7]), 0.3% in assay [3] (setting [7]) and 101% in assay [4] (setting [5]). The IC50 in assay [1] was 437 nM; in assay [4], 631 nM. In addition, the EC50 in assay [2] (setting [6]) and in assay [3] (setting [8]) was over 15100 nM each time.
